Paper PMC8583936, “Machine Learning Assisted Approach for Finding Novel High Activity Agonists of Human Ectopic Olfactory Receptors” (International Journal of Molecular Sciences, 2021)
Values joined by “and” are separate entries in the source; they are usually repeats but may differ in a detail not shown here. Equal values may be shown once.

Experiments:
OR2W1 [1] = target: T1, OR2W1 (Homo sapiens, UniProt Q9Y3N9); settings: cited from earlier work
T1 sequence (Q9Y3N9 1-320): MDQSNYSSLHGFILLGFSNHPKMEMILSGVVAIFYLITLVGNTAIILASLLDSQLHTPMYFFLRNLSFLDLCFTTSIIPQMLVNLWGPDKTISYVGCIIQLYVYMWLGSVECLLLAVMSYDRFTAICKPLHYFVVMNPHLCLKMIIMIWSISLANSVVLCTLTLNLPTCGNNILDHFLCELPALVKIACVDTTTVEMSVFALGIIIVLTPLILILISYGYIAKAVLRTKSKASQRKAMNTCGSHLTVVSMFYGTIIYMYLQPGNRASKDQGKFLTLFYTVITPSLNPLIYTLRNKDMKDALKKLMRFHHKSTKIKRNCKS

OR1A1 [2] = target: T2, OR1A1 (Homo sapiens, UniProt Q9P1Q5); experiment: Dual-Glo luciferase reporter gene assay, OR1A1 in Hana3A cells; type: cell-based; design: The open reading frames of ORs were amplified using Phusion polymerase; Rho-tag (first 20 amino acids of human rhodopsin) (N); expressed in transfected cells; host or cells: Hana3A cells (derived from HEK293T), pCI vector; co-transfected with human RTP1S, M3 receptor, CRE-Luc and SV40-RL; settings: OR1A1; for normilazed value = (L-400/R-400): three replicates
T2 sequence (Q9P1Q5 1-309): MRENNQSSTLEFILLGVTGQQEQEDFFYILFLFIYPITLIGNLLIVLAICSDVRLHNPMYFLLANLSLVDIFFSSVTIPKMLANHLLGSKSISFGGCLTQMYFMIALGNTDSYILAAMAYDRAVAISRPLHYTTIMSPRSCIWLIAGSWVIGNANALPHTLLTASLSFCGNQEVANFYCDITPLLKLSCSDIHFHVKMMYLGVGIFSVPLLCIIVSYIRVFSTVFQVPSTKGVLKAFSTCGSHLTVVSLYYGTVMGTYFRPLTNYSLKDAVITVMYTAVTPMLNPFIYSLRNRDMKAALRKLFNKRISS
Protocol: (§1) Hana3A cells were maintained in minimal essential medium containing 10% FBS (vol/vol) with penicillin-streptomycin and amphotericin B (1/200 each vol/vol) at 37 °C and 5% CO2. Hana3A cells are derived from HEK293T [57] and are optimized for OR studies as shown in several studies, compared to earlier OR expression in Sf9 insect cells in Gat et al., and in Xenopus oocytes, COS-7, PC12h and CHO-K1 cells in Katada et al..
(§2) The Dual-Glo luciferase assay system (Promega, Madison, WI, USA) was used to evaluate the functionality of wild-type OR1A1 and OR2W1 in an in vitro system. The open reading frames of ORs were amplified using Phusion polymerase (Thermo Fisher Scientific, Waltham, MA, USA). Amplified fragments were cloned into pCI expression vector (Promega, Madison, WI, USA) containing the sequence encoding the first 20 amino acids of human rhodopsin (Rho-tag) at N-terminal. Hana3A cells have been cultured and plated the day before transfection with 6 mL at 1/10 of a 100% confluence 100 mm plate into 96-well plates coated with poly D-lysine. After overnight incubation, the required genes were transfected using, for each plate, 5 ng SV40-RL, 10 ng CRE-Luc, 5 ng human RTP1S [72], 2.5 ng M3 receptor [73] and 5 ng of receptor (OR1A1, OR2W1 or empty vector Rho-pCI) plasmid. After around 18 h of transfection, cells were stimulated during 3.5 h by 25 µL of odorant diluted in CD293 + 1% glutamine + 30 µM CuCl2. Odorants were obtained from Sigma Aldrich (St. Louis, MO, USA) and diluted at 1 M concentration in DMSO as stock solutions. […] The luminescence of Firefly (Luc) and Renilla (Rluc) luciferase, were then sequentially monitored by injecting the corresponding substrate following the supplier’s protocol. The activity in each well was normalized as (Luc-400)/(Rluc-400). The response of the receptor was also normalized to its basal activity as (NLX/NL0)-1 where NL0 is the normalized luminescence value at 0 µM of odorant and NLX the value at X µM. […] Raw results were first analyzed with Excel (Microsoft Corporation, Albuquerque, NM, USA) and dose response curves, max efficacy and EC50 have been determined with GraphPrism 6 software (GraphPad Software, La Jolla, CA, USA). Areas under the curves (AUC) were calculated in Excel by summing all the OR responses at different concentrations for each odorant.

OR1A1 [3] = target: T2, OR1A1; settings: cited from earlier work
OR2W1 [4] = target: T1, OR2W1; experiment: Dual-Glo luciferase reporter gene assay, OR2W1 in Hana3A cells; type: cell-based; design: The open reading frames of ORs were amplified using Phusion polymerase; Rho-tag (first 20 amino acids of human rhodopsin) (N); expressed in transfected cells; host or cells: Hana3A cells (derived from HEK293T), pCI vector; co-transfected with human RTP1S, M3 receptor, CRE-Luc and SV40-RL; settings: OR2W1; for normilazed value = (L-400/R-400): log[molecule], three replicates
Protocol: as §1, §2

[5] = log(agonist) vs. response (three parameters), 95% CI (profile likelihood), normalized (L-400/R-400)

Structure (SMILES): O=C(c1ccccc1)c1ccccc1 [Benzophenone]
- Class (agonist / non-agonist / antagonist / conflicting info.) for OR2W1 (OR2W1 [1]): agonist
- Bottom (OR1A1 [2]; [5]): -1.851 to 2.543
- Top (OR1A1 [2]; [5]): 11.67 to 14.46
- normilazed value = (L-400/R-400) (OR1A1 [2]; log[molecule], M = -3.5): 7.459 and 7.533 and 8.1639
- normilazed value = (L-400/R-400) (OR1A1 [2]; log[molecule], M = -3.75): 11.5068 and 9.986 and 11.6353
- normilazed value = (L-400/R-400) (OR1A1 [2]; log[molecule], M = -4): 12.912 and 14.5062 and 13.7456
- normilazed value = (L-400/R-400) (OR1A1 [2]; log[molecule], M = -4.25): 14.2415 and 16.6502 and 17.5965
- normilazed value = (L-400/R-400) (OR1A1 [2]; log[molecule], M = -4.5): 12.7776 and 13.5787 and 13.5772
- normilazed value = (L-400/R-400) (OR1A1 [2]; log[molecule], M = -4.75): 11.0413 and 12.4085 and 13.0495
- normilazed value = (L-400/R-400) (OR1A1 [2]; log[molecule], M = -5): 8.171 and 9.262 and 9.035
- normilazed value = (L-400/R-400) (OR1A1 [2]; log[molecule], M = -5.25): 6.73 and 6.359 and 7.725
- normilazed value = (L-400/R-400) (OR1A1 [2]; log[molecule], M = -5.5): 4.815 and 4.814 and 5.195
- normilazed value = (L-400/R-400) (OR1A1 [2]; log[molecule], M = -5.75): 3.111 and 2.689 and 2.548
- normilazed value = (L-400/R-400) (OR1A1 [2]; log[molecule], M = -6): 2.109 and 2.273 and 2.067
- EC50 (OR1A1 [2]; three-parameter fit, 95% CI (profile likelihood)): 2.47 to 8.3 µM
- LogEC50 (OR1A1 [2]; three-parameter fit, 95% CI (profile likelihood), log[molecule], M): -5.608 to -5.081
- Class (agonist / non-agonist / conflicting info.) for OR1A1 (OR1A1 [3]): agonist
- Bottom (OR2W1 [4]; [5]): 9.831 to 25.58
- Top (OR2W1 [4]; [5]): 33.11 to 38.76
- normilazed value = (L-400/R-400) (OR2W1 [4]; M = -3.5): 18.7324 and 22.6176 and 22.52
- normilazed value = (L-400/R-400) (OR2W1 [4]; M = -3.75): 27.3072 and 27.4246
- normilazed value = (L-400/R-400) (OR2W1 [4]; M = -4): 38.4836
- normilazed value = (L-400/R-400) (OR2W1 [4]; M = -4.25): 38.5091 and 37.4777
- normilazed value = (L-400/R-400) (OR2W1 [4]; M = -4.5): 37.1848 and 47.4935
- normilazed value = (L-400/R-400) (OR2W1 [4]; M = -4.75): 39.8168 and 41.5774 and 37.3522
- normilazed value = (L-400/R-400) (OR2W1 [4]; M = -5): 38.9191 and 40.737 and 39.7699
- normilazed value = (L-400/R-400) (OR2W1 [4]; M = -5.25): 38.6807 and 38.6347 and 47.5267
- normilazed value = (L-400/R-400) (OR2W1 [4]; M = -5.5): 41.7726 and 40.3216 and 44.1867
- normilazed value = (L-400/R-400) (OR2W1 [4]; M = -6): 27.5667 and 27.048
